Source: patent US20030130216A1, “Use of inhibitors of caspase-3 or caspase-activated desoxyribonuclease(cad) for treating cardiac disease” (priority 2000, published 2003)

Test system: healthy adult ventricular cardiac muscle cells
Assay: Microinjection of activated caspase-3 into isolated ventricular cardiac muscle cells
Type: cell-based, rabbit
Conditions: pre-incubation of the muscle cells with inhibitor (100 μmol/l)
Description: The microinjection experiments were carried out on freshly isolated cardiac muscle cells of sham-operated rabbits by means of a “Femto-Jet” microinjection device (Eppendorf, Hamburg, Germany). FITC-conjugated dextran (6 mg/ml), alone or in combination with human recombinant active caspase-3 (4 ng/μl and 20 ng/μl) in 5 mmol/l potassium phosphate buffer (pH value 7.4; 100 mmol/l KCl) was injected into the cytoplasm of the cells in culture medium (Pi=1000 hPa, ti=0.1 sec., Pc=30 hPa) which had been supplemented with 200 μmol/l BDM (butanedione-monoxime, Sigma, Taufkirchen, Germany), 10 μmol/l verapamil and, optionally, 100 μmol/l […]. After incubation for two hours, contraction measurements or phalloidin staining were carried out. Injected cells were selected by means of FITC fluorescence.
In order to be able to study whether the activation of caspase-3 is sufficient for the induction of the worsening of sarcomere organisation, the activated enzyme was injected into the cytoplasm of healthy adult ventricular cardiac muscle cells. Positive cells (approximately 10 to 20%) were identified by means of FITC fluorescence. The morphological features of the cardiac muscle cells after microinjection of activated caspase-3 (4 ng/μl and 20 ng/μl) in comparison with control-injected cells are shown in FIGS. 9(a+b). […]

Q: With DEVD-fmk as the substance, how does the “caspase-3-mediated lowering of contraction” value read?
A: blocked
